{"source": "patent US7994218B2", "about": "“Simple pantoic acid ester neopentyl sulfonyl ester cyclization release prodrugs of acamprosate, compositions thereof, and methods of use” (XenoPort, Inc., priority 2007, dated 2011)", "origin": "cited, not measured here", "key": {"[1]": {"conditions": "acamprosate doses about 1-2 gm per day"}, "cocaine conditioned mice": {"system": "cocaine conditioned mice", "conditions": "100 mg/kg acamprosate for 3 days"}}}
{"smiles": "CC(=O)NCCCS(=O)(=O)O", "note": "[acamprosate, 3-(Acetylamino)propylsulfonic acid]", "values": [{"measurement": "time at which steady-state plasma concentration occurs post-dose", "setting": "[1]", "value": "3 to 8", "unit": "h"}, {"measurement": "effect on relapse-like behavior", "setting": "cocaine conditioned mice", "value": "attenuated relapse-like behavior"}]}
